Results published in PubChem BioAssay AID652269 (Broad Institute, 2013).
Where “and” joins values, the source holds several entries; their conditions need not be identical. Equal entries are not always repeated. Calls of active or inactive are those of the source.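 The calls were made as follows: active = median TrxR activity remaining at the top dose below 80%; inactive = the rest.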

These compounds were tested against Thioredoxin reductase 1, cytoplasmic (Rattus norvegicus) (UniProt O89049) (assay: rat TrxR-driven insulin reduction blockade – biochemical, rat TrxR1, insulin turbidity, dry powder, counter-screen for PDI inhibitor project, dose response (AID 652269)). Details: Trx/TrxR/NADPH insulin reduction, turbidity OD650.
For `O=C(Nc1ccccc1)C1(CCOc2ccccc2)CCN(Cc2ccc(O)c(Cl)c2)CC1`, the outcome was “inactive”.

Same assay, conditions: Trx/TrxR/NADPH insulin reduction, turbidity OD650; at 33.3 µM
`C/C1=C\C[C@H](OC(=O)c2ccc(O)cc2)/C(C)=C/[C@@H](O)C(C)(C)CCC1` was tested, and the TrxR activity remaining % (stronger effect = lower value) was 97% (inactive).
`CCOC(=O)c1c(CN2CCN(CCO)CC2)n(-c2ccccc2)c2cc(Br)c(O)cc12` was tested, and the TrxR activity remaining % (stronger effect = lower value) was 100% (inactive).
For `O=C(NC1CCCC1)C1(CCOc2ccccc2)CCN(Cc2ccc(O)c(Cl)c2)CC1`, the TrxR activity remaining % (stronger effect = lower value) was 100% (inactive).
`CCOC(=O)C1(CCOc2ccccc2)CCN(Cc2ccc(O)cc2)CC1` was tested, and the TrxR activity remaining % (stronger effect = lower value) was 100% (inactive).
`CC(C)(C)OC(=O)C1(CCOc2ccccc2)CCN(Cc2ccc(O)c(Cl)c2)CC1` was tested, and the TrxR activity remaining % (stronger effect = lower value) was 100% (inactive).
In the case of `CC(C)OC(=O)C1(CCOc2ccccc2)CCN(Cc2ccc(O)c(Cl)c2)CC1`, the TrxR activity remaining % (stronger effect = lower value) is reported as 100% (inactive).
`CCOC(=O)C1(CCOc2ccccc2)CCN(C(=O)c2ccc(O)c(Cl)c2)CC1` was tested, and the TrxR activity remaining % (stronger effect = lower value) was 100% (inactive).
`CCOC(=O)C1(CCOc2ccccc2)CCN(Cc2ccc(OC)c(Cl)c2)CC1` was tested, and the TrxR activity remaining % (stronger effect = lower value) was 100% (inactive).
With `CCOC(=O)C1(CCOc2ccccc2)CCN(Cc2ccc(O)c(Cl)c2)CC1` the TrxR activity remaining % (stronger effect = lower value) was 100% (inactive) and 94% (inactive).
